In ChEMBL document CHEMBL1150275, “Pharmacological and pharmacokinetic characterization of 2-piperazine-alpha-isopropyl benzylamine derivatives as melanocortin-4 receptor antagonists” (Bioorg Med Chem, 2008):

test system: not listed separately; assay: Drug level in mouse brain at 5 mg/kg, iv after 4 hrs; format: ADME, organism-based; parameters: dose 5 mg/kg, route intravenous; conditions: read-out: Drug uptake

| Structure (SMILES) | concentration at 4 h [ng/g] |
| --- | --- |
| CNCCN[C@H](c1cccc(F)c1N1CCN(C(=O)[C@H](C)Cc2ccc(Cl)cc2)CC1)C(C)C | 62 |
| CNCC(=O)N[C@H](c1cccc(F)c1N1CCN(C(=O)[C@H](C)Cc2ccc(Cl)cc2OC)CC1)C(C)C | 107 |
| CNCC(=O)N[C@H](c1cccc(F)c1N1CCN(C(=O)[C@H](C)Cc2ccc(Cl)cc2)CC1)C(C)C | 126 |
| CC(C)[C@H](NC(=O)CCN(C)C)c1cc(Cl)ccc1N1CCN(C(=O)[C@H](C)Cc2ccc(Cl)cc2)CC1 | 176 |
| CNCC(=O)N[C@H](c1cc(Cl)ccc1N1CCN(C(=O)[C@H](C)Cc2ccc(Cl)cc2OC)CC1)C(C)C | 102 |

test system: not listed separately; assay: physchem; conditions: buffer, pH 7.4

| Structure (SMILES) | logD |
| --- | --- |
| Cc1ccc(N2CCN(C(=O)[C@H](C)Cc3ccc(Cl)cc3)CC2)c([C@@H](NC(=O)CCN)C(C)C)c1 | 2.4 |
| CNCCC(=O)N[C@H](c1cc(C)ccc1N1CCN(C(=O)[C@H](C)Cc2ccc(Cl)cc2)CC1)C(C)C | 2.7 |
| Cc1ccc(N2CCN(C(=O)[C@H](C)Cc3ccc(Cl)cc3C)CC2)c([C@@H](NC(=O)CCN(C)C)C(C)C)c1 | 4 |
| CNCCN[C@H](c1cccc(F)c1N1CCN(C(=O)[C@H](C)Cc2ccc(Cl)cc2)CC1)C(C)C | 2.6 |
| CNCC(=O)N[C@H](c1cccc(F)c1N1CCN(C(=O)[C@H](C)Cc2ccc(Cl)cc2OC)CC1)C(C)C | 3.1 |
| CNCC(=O)N[C@H](c1cccc(F)c1N1CCN(C(=O)[C@H](C)Cc2ccc(Cl)cc2)CC1)C(C)C | 2.4 |
| CC(C)[C@H](NC(=O)CCN(C)C)c1cc(Cl)ccc1N1CCN(C(=O)[C@H](C)Cc2ccc(Cl)cc2)CC1 | 4 |
| CNCC(=O)N[C@H](c1cc(Cl)ccc1N1CCN(C(=O)[C@H](C)Cc2ccc(Cl)cc2OC)CC1)C(C)C | 3.5 |
| CNCCN[C@H](c1cc(C)ccc1N1CCN(C(=O)[C@H](C)Cc2ccc(Cl)cc2F)CC1)C(C)C | 2.5 |

test system: not listed separately; assay: AUC in mouse at 10 mg/kg, po; format: ADME, organism-based; parameters: dose 10 mg/kg, route oral; conditions: plasma

| Structure (SMILES) | AUC [ng·h/mL] |
| --- | --- |
| CNCCN[C@H](c1cccc(F)c1N1CCN(C(=O)[C@H](C)Cc2ccc(Cl)cc2)CC1)C(C)C | 1630 |
| CNCC(=O)N[C@H](c1cccc(F)c1N1CCN(C(=O)[C@H](C)Cc2ccc(Cl)cc2OC)CC1)C(C)C | 374 |
| CNCC(=O)N[C@H](c1cccc(F)c1N1CCN(C(=O)[C@H](C)Cc2ccc(Cl)cc2)CC1)C(C)C | 813 |
| CC(C)[C@H](NC(=O)CCN(C)C)c1cc(Cl)ccc1N1CCN(C(=O)[C@H](C)Cc2ccc(Cl)cc2)CC1 | 600 |
| CNCC(=O)N[C@H](c1cc(Cl)ccc1N1CCN(C(=O)[C@H](C)Cc2ccc(Cl)cc2OC)CC1)C(C)C | 208 |

test system: not listed separately; assay: Tmax in mouse at 5 mg/kg, iv and 10 mg/kg, po; format: ADME, organism-based; conditions: in vivo

| Structure (SMILES) | Tmax [min] |
| --- | --- |
| CNCCN[C@H](c1cccc(F)c1N1CCN(C(=O)[C@H](C)Cc2ccc(Cl)cc2)CC1)C(C)C | 30 |
| CNCC(=O)N[C@H](c1cccc(F)c1N1CCN(C(=O)[C@H](C)Cc2ccc(Cl)cc2OC)CC1)C(C)C | 30 |
| CNCC(=O)N[C@H](c1cccc(F)c1N1CCN(C(=O)[C@H](C)Cc2ccc(Cl)cc2)CC1)C(C)C | 30 |
| CC(C)[C@H](NC(=O)CCN(C)C)c1cc(Cl)ccc1N1CCN(C(=O)[C@H](C)Cc2ccc(Cl)cc2)CC1 | 60 |
| CNCC(=O)N[C@H](c1cc(Cl)ccc1N1CCN(C(=O)[C@H](C)Cc2ccc(Cl)cc2OC)CC1)C(C)C | 30 |

test system: Caco-2; assay: Apparent permeability across human Caco-2 cells; format: ADME, cell-based; conditions: not given

| Structure (SMILES) | Papp [×10⁻⁶ cm/s] |
| --- | --- |
| Cc1ccc(N2CCN(C(=O)[C@H](C)Cc3ccc(Cl)cc3)CC2)c([C@@H](NC(=O)CCN)C(C)C)c1 | 3 |
| CNCCC(=O)N[C@H](c1cc(C)ccc1N1CCN(C(=O)[C@H](C)Cc2ccc(Cl)cc2)CC1)C(C)C | 12 |
| Cc1ccc(N2CCN(C(=O)[C@H](C)Cc3ccc(Cl)cc3C)CC2)c([C@@H](NC(=O)CCN(C)C)C(C)C)c1 | 16 |
| CNCCN[C@H](c1cccc(F)c1N1CCN(C(=O)[C@H](C)Cc2ccc(Cl)cc2)CC1)C(C)C | 0.4 |
| CNCC(=O)N[C@H](c1cccc(F)c1N1CCN(C(=O)[C@H](C)Cc2ccc(Cl)cc2OC)CC1)C(C)C | 2 |
| CNCC(=O)N[C@H](c1cccc(F)c1N1CCN(C(=O)[C@H](C)Cc2ccc(Cl)cc2)CC1)C(C)C | 1 |
| CC(C)[C@H](NC(=O)CCN(C)C)c1cc(Cl)ccc1N1CCN(C(=O)[C@H](C)Cc2ccc(Cl)cc2)CC1 | 9 |
| CNCCN[C@H](c1cc(C)ccc1N1CCN(C(=O)[C@H](C)Cc2ccc(Cl)cc2F)CC1)C(C)C | 3 |

test system: not listed separately; assay: Ratio of drug level in brain to plasma in mouse at 5 mg/kg, iv after 4 hrs; format: ADME, organism-based; parameters: dose 5 mg/kg, route intravenous; conditions: not given

| Structure (SMILES) | Kp at 4 h |
| --- | --- |
| CNCCN[C@H](c1cccc(F)c1N1CCN(C(=O)[C@H](C)Cc2ccc(Cl)cc2)CC1)C(C)C | 1.2 |
| CNCC(=O)N[C@H](c1cccc(F)c1N1CCN(C(=O)[C@H](C)Cc2ccc(Cl)cc2OC)CC1)C(C)C | 1.7 |
| CNCC(=O)N[C@H](c1cccc(F)c1N1CCN(C(=O)[C@H](C)Cc2ccc(Cl)cc2)CC1)C(C)C | 1.1 |
| CC(C)[C@H](NC(=O)CCN(C)C)c1cc(Cl)ccc1N1CCN(C(=O)[C@H](C)Cc2ccc(Cl)cc2)CC1 | 2.3 |
| CNCC(=O)N[C@H](c1cc(Cl)ccc1N1CCN(C(=O)[C@H](C)Cc2ccc(Cl)cc2OC)CC1)C(C)C | 1.3 |

test system: not listed separately; assay: Volume of distribution in mouse at 5 mg/kg, iv and 10 mg/kg, po; format: ADME, organism-based; conditions: in vivo

| Structure (SMILES) | Vd [L/kg] |
| --- | --- |
| CNCCN[C@H](c1cccc(F)c1N1CCN(C(=O)[C@H](C)Cc2ccc(Cl)cc2)CC1)C(C)C | 52 |
| CNCC(=O)N[C@H](c1cccc(F)c1N1CCN(C(=O)[C@H](C)Cc2ccc(Cl)cc2OC)CC1)C(C)C | 29 |
| CNCC(=O)N[C@H](c1cccc(F)c1N1CCN(C(=O)[C@H](C)Cc2ccc(Cl)cc2)CC1)C(C)C | 19 |
| CC(C)[C@H](NC(=O)CCN(C)C)c1cc(Cl)ccc1N1CCN(C(=O)[C@H](C)Cc2ccc(Cl)cc2)CC1 | 11 |
| CNCC(=O)N[C@H](c1cc(Cl)ccc1N1CCN(C(=O)[C@H](C)Cc2ccc(Cl)cc2OC)CC1)C(C)C | 11 |

test system: not listed separately; assay: Oral bioavailability in mouse at 10 mg/kg; format: ADME, organism-based; conditions: in vivo

| Structure (SMILES) | bioavailability [%] |
| --- | --- |
| CNCCN[C@H](c1cccc(F)c1N1CCN(C(=O)[C@H](C)Cc2ccc(Cl)cc2)CC1)C(C)C | 47 |
| CNCC(=O)N[C@H](c1cccc(F)c1N1CCN(C(=O)[C@H](C)Cc2ccc(Cl)cc2OC)CC1)C(C)C | 12 |
| CNCC(=O)N[C@H](c1cccc(F)c1N1CCN(C(=O)[C@H](C)Cc2ccc(Cl)cc2)CC1)C(C)C | 21 |
| CC(C)[C@H](NC(=O)CCN(C)C)c1cc(Cl)ccc1N1CCN(C(=O)[C@H](C)Cc2ccc(Cl)cc2)CC1 | 19 |
| CNCC(=O)N[C@H](c1cc(Cl)ccc1N1CCN(C(=O)[C@H](C)Cc2ccc(Cl)cc2OC)CC1)C(C)C | 8 |

test system: not listed separately; assay: Ratio of drug level in brain to plasma in mouse at 5 mg/kg, iv after 1 hr; format: ADME, organism-based; parameters: dose 5 mg/kg, route intravenous; conditions: not given

| Structure (SMILES) | Kp at 1 h |
| --- | --- |
| CNCCN[C@H](c1cccc(F)c1N1CCN(C(=O)[C@H](C)Cc2ccc(Cl)cc2)CC1)C(C)C | 0.4 |
| CNCC(=O)N[C@H](c1cccc(F)c1N1CCN(C(=O)[C@H](C)Cc2ccc(Cl)cc2OC)CC1)C(C)C | 0.5 |
| CNCC(=O)N[C@H](c1cccc(F)c1N1CCN(C(=O)[C@H](C)Cc2ccc(Cl)cc2)CC1)C(C)C | 0.6 |
| CC(C)[C@H](NC(=O)CCN(C)C)c1cc(Cl)ccc1N1CCN(C(=O)[C@H](C)Cc2ccc(Cl)cc2)CC1 | 1.9 |
| CNCC(=O)N[C@H](c1cc(Cl)ccc1N1CCN(C(=O)[C@H](C)Cc2ccc(Cl)cc2OC)CC1)C(C)C | 1.3 |

test system: not listed separately; assay: Cmax in mouse at 5 mg/kg, iv and 10 mg/kg, po; format: ADME, organism-based; conditions: in vivo

| Structure (SMILES) | Cmax [ng/mL] |
| --- | --- |
| CNCCN[C@H](c1cccc(F)c1N1CCN(C(=O)[C@H](C)Cc2ccc(Cl)cc2)CC1)C(C)C | 166 |
| CNCC(=O)N[C@H](c1cccc(F)c1N1CCN(C(=O)[C@H](C)Cc2ccc(Cl)cc2OC)CC1)C(C)C | 114 |
| CNCC(=O)N[C@H](c1cccc(F)c1N1CCN(C(=O)[C@H](C)Cc2ccc(Cl)cc2)CC1)C(C)C | 165 |
| CC(C)[C@H](NC(=O)CCN(C)C)c1cc(Cl)ccc1N1CCN(C(=O)[C@H](C)Cc2ccc(Cl)cc2)CC1 | 109 |
| CNCC(=O)N[C@H](c1cc(Cl)ccc1N1CCN(C(=O)[C@H](C)Cc2ccc(Cl)cc2OC)CC1)C(C)C | 55 |

test system: not listed separately; assay: Drug level in mouse brain at 5 mg/kg, iv after 1 hr; format: ADME, organism-based; parameters: dose 5 mg/kg, route intravenous; conditions: read-out: Drug uptake

| Structure (SMILES) | concentration at 1 h [ng/g] |
| --- | --- |
| CNCCN[C@H](c1cccc(F)c1N1CCN(C(=O)[C@H](C)Cc2ccc(Cl)cc2)CC1)C(C)C | 53 |
| CNCC(=O)N[C@H](c1cccc(F)c1N1CCN(C(=O)[C@H](C)Cc2ccc(Cl)cc2)CC1)C(C)C | 231 |
| CC(C)[C@H](NC(=O)CCN(C)C)c1cc(Cl)ccc1N1CCN(C(=O)[C@H](C)Cc2ccc(Cl)cc2)CC1 | 580 |
| CNCC(=O)N[C@H](c1cc(Cl)ccc1N1CCN(C(=O)[C@H](C)Cc2ccc(Cl)cc2OC)CC1)C(C)C | 334 |
